In a compilation of properties of binary mixtures (doi:10.1016/j.jct.2020.106383):

Experiment: xn = mol fraction of the nth substance listed
Conditions: 100 kPa

CCOC(C)=O + CCCC[n+]1ccn(C)c1.O=S(=O)([N-]S(=O)(=O)C(F)(F)F)C(F)(F)F
speed of sound [m/s]
Conditions	x2 = 0	x2 = 0.1045	x2 = 0.2067	x2 = 0.3058	x2 = 0.4012	x2 = 0.5002	x2 = 0.6065	x2 = 0.7081	x2 = 0.7932	x2 = 0.9087
298.15 K	1143.2	–	1172	1182.9	1192	–	1207.6	1213.7	1218.2	–
303.15 K	1120.8	1137.6	1151.9	1164	1174.2	1183.4	1192	1199.3	–	1211.6
308.15 K	1098.7	1116.7	1132.1	1145.3	–	1166.9	1176.7	1185.1	1191.5	1199.6
313.15 K	1076.4	1095.5	1112.1	1126.5	1138.8	1150.3	1161.3	–	–	1187.7
318.15 K	–	1074.5	–	1107.8	1121.2	–	1146.1	–	1165.2	–
323.15 K	1032	1053.5	1072.5	–	1103.7	1117.4	1130.9	1142.8	–	1164.3

CCCC[n+]1ccn(C)c1.O=S(=O)([N-]S(=O)(=O)C(F)(F)F)C(F)(F)F + CCOC(C)=O
x1 = 1
Conditions	speed of sound [m/s]
298.15 K	1227.9
303.15 K	1216.8
308.15 K	1205.8
313.15 K	1195
318.15 K	1184.2
323.15 K	1173.6
